Data: patent publication US10323063B2, “Advanced macromolecule transduction domain (aMTD) sequences for improvement of cell-permeability, polynucleotides encoding the same, method to identify the unique features of aMTDs comprising the same, method to develop the aMTD sequences comprising the same” (CELLIVERY THERAPEUTICS, INC., priority 2014, dated 2019)

Tested on: RAW 264.7 cells
Assay: Quantitative cell-permeability of FITC-labeled aMTD- or rPeptide-fused CRA recombinant proteins by flow cytometry
Assay type: cell-based
Settings: for Relative Ratio to aMTD AVE: cell-permeability of rPeptide relative to the average of 240 aMTDs
From the text: The aMTDs and rPeptides were fluorescently labeled and compared based on the critical factors for cell-permeability by using flow cytometry and confocal laser scanning microscopy (FIG. 5 to 8). The cellular uptake of the peptide-fused non-functional cargo recombinant proteins could quantitatively be evaluated in flow cytometry, while confocal laser scanning microscopy allows intracellular uptake to be assessed visually. The analysis included recombinant proteins fused to a negative control [rP38] that has opposite characteristics (hydrophilic and aromatic sequence: YYNQSTCGGQCY) to the aMTDs (hydrophobic and aliphatic sequences). Relative cell-permeability (relative fold) of aMTDs to the negative control was also analyzed (TABLE 39 and FIG. 9).
Geometric means of negative control (histidine-tagged rP38-fused CRA recombinant protein) subtracted by that of naked protein (histidine-tagged CRA protein) lacking any peptide (rP38 or aMTD) was standardized as relative fold of 1.
For quantitative cell-permeability, the aMTD- or rPeptide-fused recombinant proteins were conjugated to fluorescein isothiocyanate (FITC) according to the manufacturer's instructions (Sigma-Aldrich, St. Louis, Mo.). RAW 264.7 cells were treated with 10 μM FITC-labeled recombinant proteins for 1 hour at 37° C., washed three times with cold PBS, treated with 0.25% tripsin/EDTA (Sigma-Aldrich, St. Louis, Mo.) for 20 minutes at 37° C. to remove cell-surface bound proteins. Cell-permeability of these recombinant proteins were analyzed by flow cytometry (Guava, Millipore, Darmstadt, Germany) using the FlowJo cytometric analysis software (FIG. 5 to 6). The relative cell-permeability of aMTDs were measured and compared with the negative control (rP38) and reference hydrophobic CPPs (MTM12 and MTD85) (TABLE 47).

[1] = cell-permeability of aMTD-fused CRA recombinant protein relative to negative control rP38 (A type)
[2] = cell-permeability relative to reference CPP MTD85 (C type)
[3] = cell-permeability relative to reference CPP MTM12 (B type)
[4] = cell-permeability of aMTD-fused CRA recombinant protein relative to negative control (A: rP38)
[5] = cell-permeability of aMTD-fused CRA recombinant protein relative to reference CPP (B: MTM12)
[6] = cell-permeability of aMTD-fused CRA recombinant protein relative to reference CPP (C: MTD85)

Row | Substance | Relative Ratio (Fold) A [1] | Relative Ratio (Fold) C [2] | Relative Ratio (Fold) B [3] | Relative Ratio to aMTD AVE | Relative Ratio (Fold) A [4] | Relative Ratio (Fold) B [5] | Relative Ratio (Fold) C [6]
1 | 22 (AVVLVPVLAAAP; Advanced Macromolecule Transduction Domain (aMTD) Sequences for Improvement of Cell-Permeability) [compound 22] | 3.1 Fold | 1.1 Fold | 2.1 Fold |  |  |  | 
2 | 23 (VVLVLPAAAAVP; Advanced Macromolecule Transduction Domain (aMTD) Sequences for Improvement of Cell-Permeability) [compound 23] | 4.0 Fold | 1.3 Fold | 2.6 Fold |  |  |  | 
3 | 42 (VAALPVVAVVAP; Advanced Macromolecule Transduction Domain (aMTD) Sequences for Improvement of Cell-Permeability) [compound 42] | 2.5 Fold | 0.8 Fold | 1.7 Fold |  |  |  | 
4 | 44 (ALAVPVALLVAP; Advanced Macromolecule Transduction Domain (aMTD) Sequences for Improvement of Cell-Permeability) [compound 44] | 1.6 Fold | 0.5 Fold | 1.1 Fold |  |  |  | 
5 | 49 (VVPAAPAVPVVP) [compound 49] |  |  |  | 0.18 |  |  | 
6 | 57 (QNNCNTSSQGGG) [compound 57] |  |  |  | 0.06 |  |  | 
7 | 63 (AALLVPALVAVP; Advanced Macromolecule Transduction Domain (aMTD) Sequences for Improvement of Cell-Permeability) [compound 63] | 1.9 Fold | 0.7 Fold | 1.3 Fold |  |  |  | 
8 | 81 (AALLPALAALLP; Advanced Macromolecule Transduction Domain (aMTD) Sequences for Improvement of Cell-Permeability) [compound 81] | 6.9 Fold | 2.3 Fold | 4.6 Fold |  |  |  | 
9 | 101 (LVALAPVAAVLP; Advanced Macromolecule Transduction Domain (aMTD) Sequences for Improvement of Cell-Permeability) [compound 101] | 4.5 Fold | 1.5 Fold | 3.0 Fold |  |  |  | 
10 | 102 (LALAPAALALLP; Advanced Macromolecule Transduction Domain (aMTD) Sequences for Improvement of Cell-Permeability) [compound 102] | 1.4 Fold | 0.5 Fold | 0.9 Fold |  |  |  | 
11 | 103 (ALIAAPILALAP; Advanced Macromolecule Transduction Domain (aMTD) Sequences for Improvement of Cell-Permeability) [compound 103] | 2.1 Fold | 0.7 Fold | 1.4 Fold |  |  |  | 
12 | 104 (AVVAAPLVLALP; Advanced Macromolecule Transduction Domain (aMTD) Sequences for Improvement of Cell-Permeability) [compound 104] | 7.3 Fold | 2.5 Fold | 4.9 Fold |  |  |  | 
13 | 123 (AAIIVPAALLAP; Advanced Macromolecule Transduction Domain (aMTD) Sequences for Improvement of Cell-Permeability) [compound 123] | 2.9 Fold | 1.0 Fold | 2.0 Fold |  |  |  | 
14 | 144 (VLAIVPAVALAP; Advanced Macromolecule Transduction Domain (aMTD) Sequences for Improvement of Cell-Permeability) [compound 144] | 8.8 Fold | 3.0 Fold | 5.9 Fold |  |  |  | 
15 | 162 (AVVALPAALIVP; Advanced Macromolecule Transduction Domain (aMTD) Sequences for Improvement of Cell-Permeability) [compound 162] | 8.2 Fold | 2.8 Fold | 5.5 Fold |  |  |  | 
16 | 163 (LALVLPAALAAP; Advanced Macromolecule Transduction Domain (aMTD) Sequences for Improvement of Cell-Permeability) [compound 163] | 4.1 Fold | 1.4 Fold | 2.4 Fold |  |  |  | 
17 | 164 (LAAVLPALLAAP; Advanced Macromolecule Transduction Domain (aMTD) Sequences for Improvement of Cell-Permeability) [compound 164] | 8.2 Fold | 2.8 Fold | 5.5 Fold |  |  |  | 
18 | 165 (ALAVPVALAIVP; Advanced Macromolecule Transduction Domain (aMTD) Sequences for Improvement of Cell-Permeability) [compound 165] |  |  |  |  | 19.8 Fold | 13.2 Fold | 6.7 Fold
19 | 204 (LIAALPAVAALP; Advanced Macromolecule Transduction Domain (aMTD) Sequences for Improvement of Cell-Permeability) [compound 204] | 2.2 Fold | 0.8 Fold | 1.5 Fold |  |  |  | 
20 | 205 (ALALVPAIAALP; Advanced Macromolecule Transduction Domain (aMTD) Sequences for Improvement of Cell-Permeability) [compound 205] | 2.6 Fold | 0.9 Fold | 1.7 Fold |  |  |  | 
21 | 224 (ILAAVPIALAAP; Advanced Macromolecule Transduction Domain (aMTD) Sequences for Improvement of Cell-Permeability) [compound 224] |  |  |  |  | 15.8 Fold | 10.6 Fold | 5.3 Fold
22 | 285 (AIVLLPAAVVAP; Advanced Macromolecule Transduction Domain (aMTD) Sequences for Improvement of Cell-Permeability) [compound 285] |  |  |  |  |  | 8.9 Fold | 
23 | 363 (AVLAVAPALIVP; Advanced Macromolecule Transduction Domain (aMTD) Sequences for Improvement of Cell-Permeability) [compound 363] |  |  |  |  | 14.7 Fold | 9.8 Fold | 4.9 Fold
24 | 442 (ALAALVPAVLVP; Advanced Macromolecule Transduction Domain (aMTD) Sequences for Improvement of Cell-Permeability) [compound 442] |  |  |  |  |  | 13.6 Fold | 
25 | 481 (AIAIAIVPVALP; Advanced Macromolecule Transduction Domain (aMTD) Sequences for Improvement of Cell-Permeability) [compound 481] |  |  |  |  | 34.3 Fold | 23.0 Fold | 11.6 Fold
